Measured values reported in paper PMC12959148, “Exploring T. cruzi IMPDH as a promising target through Chagas Box screening and AVN-944 inhibition” (Antimicrobial Agents and Chemotherapy, 2026).
Where “and” joins values, the source holds several entries; their conditions need not be identical. Equal entries are not always repeated. Entries after “also recorded” stand apart in the source; their conditions may differ. Where two headings read alike, the source gives them in different places.

Legend:
T. cruzi IMPDH = T. cruzi IMPDH (Trypanosoma cruzi, UniProt Q4CUG6); test: biochemical
Sequence of T. cruzi IMPDH (Q4CUG6 entry or part of it): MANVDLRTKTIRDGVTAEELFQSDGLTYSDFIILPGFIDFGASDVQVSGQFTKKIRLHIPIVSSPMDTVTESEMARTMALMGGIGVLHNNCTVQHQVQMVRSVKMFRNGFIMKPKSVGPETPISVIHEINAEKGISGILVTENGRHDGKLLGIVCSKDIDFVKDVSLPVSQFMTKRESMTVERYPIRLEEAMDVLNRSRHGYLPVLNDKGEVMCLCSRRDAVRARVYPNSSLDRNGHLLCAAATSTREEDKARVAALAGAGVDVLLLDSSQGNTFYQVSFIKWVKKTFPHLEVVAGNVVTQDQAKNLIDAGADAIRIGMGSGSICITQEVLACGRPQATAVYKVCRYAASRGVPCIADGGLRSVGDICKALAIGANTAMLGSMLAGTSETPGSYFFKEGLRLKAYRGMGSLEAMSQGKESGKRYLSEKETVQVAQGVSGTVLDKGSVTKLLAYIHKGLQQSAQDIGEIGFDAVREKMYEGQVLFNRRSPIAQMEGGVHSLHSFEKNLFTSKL
Procedure: (§1) Compounds were assayed at a single concentration of 10 μM. They were provided by GSK (GlaxoSmithKline) in a 384-well ready-to-use assay microplate containing 25 nL of each sample at 10 mM (100% DMSO). […] Velocities at steady state were calculated in the plate reader (CLARIOstar, BMG LabTech) as the maximum slope. […] After 15 min, resorufin fluorescence (Ex = 570 nm; Em = 590 nm) was measured in a plate reader (CLARIOstar, BMG LabTech). Data were normalized and plotted using GraphPad Prism 9.5.0.
The above-mentioned diaphorase-coupled assay was used. […] TcIMPDH activity was normalized, and the IC50 was calculated using GraphPad Prism 9.5.0.

[1] = test system: T. cruzi amastigotes in H9c2 cells; test: Image-based infection assay, intracellular amastigotes in H9c2 host cells; type: cell-based; conditions: Trypanosoma cruzi, read-out: EC50 against T. cruzi amastigotes in H9c2 cells
Procedure: To determine EC50 to kill intracellular amastigotes in H9c2 host cells, we used an image-based assay previously described in Alonso-Padilla et al. ([56]). Briefly, T. cruzi trypomastigotes (from LLC-MK2 supernatant) were used to infect H9c2 rat cardiomyocytes overnight. After washing, cells were incubated for 48 h in fresh DMEM, then seeded (1.5 × 10^3 cells/well) into 384-well plates with 50 µL assay volume (0.4% DMSO) containing 0.2 µL of compounds. After 72 h, cells were washed, fixed with 4% paraformaldehyde, and stained with Hoechst 33,342 (4 µg/mL). Images (five per well) were acquired using an Operetta microscope (20× objective) and analyzed with Columbus software. Data on cell count and infection ratio were processed in GraphPad Prism 9.5.0.

recombinant TcIMPDH = test: TcIMPDH Michaelis-Menten kinetics, NADH fluorescence direct assay; type: biochemical, Trypanosoma cruzi; conditions: 25°C, pH 7, other substrate at 1 mM, 1 μM enzyme
Procedure: Em = 485 nm) at 25°C, in black 384-wells microplates. Fluorescence was recorded every 30 s over 10 min using a CLARIOstar plate reader (BMG LabTech) and steady-state velocities were calculated from the maximum slope of the fluorescence curve. All reactions were performed in triplicate, under optimized buffer conditions: 50 mM tri-sodium citrate (pH 7), 100 mM KCl, and 1 mM DTT. For both substrates, 1 μM of purified recombinant […] was used.

L. donovani IMPDH = conditions: read-out: Km of L. donovani IMPDH for substrate; cited from earlier work
T. brucei IMPDH = test system: T. brucei IMPDH; set-up: method as in PMID 23369253; conditions: read-out: Km of T. brucei IMPDH for substrate; cited from earlier work
human IMPDHs = conditions: read-out: Km of human IMPDHs for substrate; cited from earlier work
CYP51 = test system: CYP51; set-up: method as in PMID 25740547; conditions: cited from earlier work
T. cruzi amastigotes = test system: T. cruzi amastigotes; set-up: method as in PMID 25740547; conditions: calculated from reported pEC50 value; read-out: EC50 anti-amastigote activity, previously reported; cited from earlier work
TcIMPDH = TcIMPDH (Trypanosoma cruzi, UniProt Q4CUG6); test: Chagas Box single-concentration screening for TcIMPDH inhibitors; type: biochemical
Sequence of TcIMPDH (Q4CUG6 entry or part of it): as above
Procedure: as §1

human IMPDH isoenzymes = conditions: cited from earlier work
T. cruzi = test system: T. cruzi; set-up: method as in PMID 12070425; conditions: cited from earlier work
[2] = H9c2, 72 h, image-based, at least two biological replicates
[3] = read-out: IC50 against T. cruzi IMPDH

In the case of `COc1cc(NC(=O)Nc2cccc(CNC(=O)O[C@@H]3CCOC3)c2)ccc1-c1cnco1` [(R)-Merimepodib], the IC50 (T. cruzi IMPDH) is reported as 370 nM and the EC50 [1, 2] is reported as 3000 nM.

For `NC(=O)c1ccc[n+]([C@@H]2O[C@H](COP(=O)([O-])OP(=O)(O)OC[C@H]3O[C@@H](n4cnc5c(N)ncnc54)[C@H](O)[C@@H]3O)[C@@H](O)[C@H]2O)c1` [NAD^+, nicotinamide adenine dinucleotide oxidized form], the Km (recombinant TcIMPDH) is given as 292 µM, the Km (L. donovani IMPDH) is given as 390 µM and the Km (T. brucei IMPDH) is given as 1300 µM. For the same molecule, the Km (human IMPDHs) was 6 to 70 µM.

In the case of `O=C(Cn1ccnc1[N+](=O)[O-])NCc1ccccc1` [Benznidazole], the EC50 [1, 2] is reported as 3000 nM.

Molecule `COc1cc(NC(=O)Nc2cccc(CNC(=O)O[C@H]3CCOC3)c2)ccc1-c1cnco1` [(S)-Merimepodib] has an IC50 (T. cruzi IMPDH) of 210 nM and an EC50 [1, 2] of 4800 nM.

For `COc1cc(NC(=O)Nc2cccc(CNC(=O)OC3CCCCC3)c2)ccc1-c1cnco1` [TCMDC-143376], the IC50 (CYP51) is given as ~25000 nM, the EC50 (T. cruzi amastigotes) is given as ~15900 nM and 15900 nM and the IC50 (T. cruzi IMPDH; [3]) is given as 4000 nM. For the same molecule, the inhibition at 10 µM (TcIMPDH; 10 μM compound, two independent runs, read-out: inhibition of TcIMPDH in primary screening) was 55 to 60% and the IC50 (TcIMPDH; estimated from inhibition at the fixed concentration 10 μM, read-out: IC50 suggested by screening) was < 10000 nM.

In the case of `NC(=O)c1ncn([C@@H]2O[C@H](CO)[C@@H](O)[C@H]2O)c1O` [Mizoribine], the “inhibition of TcIMPDH activity” value (T. cruzi IMPDH) is reported as “did not show measurable inhibition; also recorded: inactive”.

In the case of `CC[C@H](CC#N)OC(=O)N[C@@H](C)c1cccc(NC(=O)Nc2ccc(-c3cnco3)c(OC)c2)c1` [AVN-944], the Ki (human IMPDH isoenzymes) is given as 6 to 10 nM, the IC50 (T. cruzi IMPDH) is given as 200 nM and the Ki (T. cruzi IMPDH) is given as ~81 nM. The EC50 ([1]; H9c2, 72 h) was 400 nM.

For `COc1c(C)c2c(c(O)c1C/C=C(\C)CCC(=O)OCCN1CCOCC1)C(=O)OC2` [Mycophenolate mofetil], the “parasitemia in Chagas murine model” value (T. cruzi) is given as “reduction of parasitemia”, the “survival / parasitological cure in Chagas murine model” value (T. cruzi) is given as “fails to improve survival outcomes or achieve parasitological cure” and the IC50 (T. cruzi IMPDH; [3]) is given as 4400 nM. The EC50 [1, 2] was 1500 nM.
